Source: article PMC10747602, “Dose Response, Dosimetric, and Metabolic Evaluations of Replacement PFAS Perfluoro-(2,5,8-trimethyl-3,6,9-trioxadodecanoic) Acid (HFPO-TeA)” (Toxics, 2023)
Several values for one entry are separate records, joined by “and”; a condition that tells them apart may be missing. Equal values may be shown once.

Key:
[1] = Hepatocyte metabolic stability (clearance) assay, human hepatocytes; conditions: human, hepatocytes, 1000 nM
Method: (§1) Information on the chemicals and materials used in the hepatocyte metabolic work can be found in Supplementary Text S9 and Table S3. In vitro evaluations of hepatocyte metabolic stability were performed in human and rat hepatocytes, as previously described. Briefly, pooled, cryopreserved hepatocyte suspensions were thawed, assessed for viability, and then diluted in William’s medium E containing dexamethasone and cell maintenance cocktail B to achieve a cell density of 50,000 cells/100 µL. The assay was started by adding hepatocyte suspensions to wells of 96-well polypropylene plates containing an equal volume of media with 2 µM of analyte (final assay concentration: 1 µM). Plates were placed in a 37 °C cell culture incubator (5% CO2) on a shaker set to 200 rpm. Time points assessed were T0, T15, T30, T60, T120, and T240 min. At each time point, the plates were removed from the shaker and the incubates were crashed with an equal volume of ice-cold ACN containing 1.2% FA and 16 ng/mL of ^13C3 -HFPO-DA. After chilling and centrifugation at 4122× g, the supernatants were transferred to new collection plates and stored at −70 °C until analysis for the parent compound on the Waters instrumentation described below. Immediately prior to analysis, samples were thawed, vortexed, and centrifuged at 4200× g, and then diluted 1:4 in 95:5 H2O/ACN with 2.5 mM of ammonium acetate. Negative controls, including no cell controls and metabolically inactivated hepatocytes, were run concurrently to assess the chemical stability over the time course.
(§2) Intrinsic clearance (Clint; hepatic clearance) calculations are detailed in Supplementary Text S9 [57].
(§3) Targeted, quantitative analysis of in vitro hepatocyte metabolic stability and plasma protein binding assay samples was conducted on a Waters Xevo-TQS micro mass spectrometer (Waters, Milford, MA, USA) ultra-high-performance liquid chromatography tandem mass spectrometry system (UPLC-MS/MS), modified with a PFAS analysis kit. Samples were analyzed in negative ion mode with UniSpray ionization. A CORTECS T3 column (Waters CORTECS, 3 × 100 mm, particle size 2.7 µm) was used for chromatographic separation with a flow rate of 0.6 mL/min and a temperature of 55 °C. Gradient elution was used with eluent A (95:5 H2O/ACN) and eluent B (95:5 ACN/H2O) with 2.5 mM of ammonium acetate. The gradient is available in Table S11. Additional details for MS parameters are found in Table S12 and monitored transitions are found in Table S13.
(§4) Table S2: Data processing parameters used with Sciex MarkerView 1.3.1.
(§5) Support ing Text S9: Hepatocyte Metabolic Stability Assay Materials, Chemicals, and Calculations
(§6) Pooled human and rat cryopreserved primary hepatocyte suspensions were both obtained from
(§7) BioIVT, a US Food and Drug Administration-licensed and inspected donor center, and produced using
(§8) non-transplantable tissue.
(§9) William’s E media, dexamet hasone (98% pure), and cell maintenance cocktail B were obtained from
(§10) Thermo Fisher Scientific (Waltham, MA, USA), the OptiThaw hepatocyte kit from Sekisui/Xenotech
(§11) (Tokyo, Japan), and the trypan blue s (Sekisui/ Xenotech, Tokyo, Japan) and the trypan blue solution from […]

[2] = Hepatocyte metabolic stability (clearance) assay, rat hepatocytes; conditions: both, Sprague Dawley, rat, hepatocytes
Method: as §1, §2, §3, §4, §5, §6, §7, §8, §9, §10, §11

[3] = system: Sprague Dawley rodent plasma; test: Ultracentrifugation plasma protein binding assay, rat plasma; format: in vitro ADME; conditions: rat plasma, 10000 nM
Method: (§12) Information on the chemicals and materials used in the plasma protein binding work can be found in Supplementary Text S10 and Table S3. Human and rodent plasma were evaluated for plasma protein binding using ultracentrifugation, as previously described. Working solutions of 3 mM of HFPO-DA, HFPO-TA, and HFPO-TeA were prepared separately in ethanol, with each working solution containing 3 mM of testosterone (Sigma-Aldrich; ≥98% pure) as a reference compound for assay performance. An aliquot of each stock solution (13.3 µL) was added to separate 15 mL tubes with 3.987 mL of plasma for a final assay concentration of 10 µM. The plasma solutions were incubated at 37 °C and 125 rpm for 60 min. One-hour stability samples (T60 min) were drawn in triplicate and diluted in four volumes of plasma ultrafiltrate. Aliquots (1 mL) from each plasma solution were drawn in triplicate and transferred to polycarbonate tubing. These samples underwent ultracentrifugation (Beckman OptimaMax; Beckman Coulter Inc., Brea, CA, USA) at 850,000× g for 4 h at 37 °C.
(§13) The remaining plasma solutions were returned for incubation at 37 °C and 125 rpm for an additional 4 h. Five-hour stability samples (T300 min) were then drawn in triplicate and diluted in four volumes of plasma ultrafiltrate. After ultracentrifugation, the aqueous fraction (AF) was collected by transferring the supernatant to a new tube and diluting in an equal volume of plasma for matrix matching. All samples were combined with 3 volumes of ice-cold ACN containing 16 ng/mL of ^13C3-HFPO-DA and 16 ng/mL of ^13C-Testosterone (Cambridge Isotope Laboratories; 98% pure). Samples were vigorously mixed, stored for 10 min at −20 °C, and then centrifuged at 12,000× g for 10 min at 4 °C. Supernatants were collected then stored at −70 °C prior to analysis.
(§14) Fraction unbound (fu) in plasma (fup) and percent stability calculations are detailed in Supplementary Text S10. Hepatic clearance, the fu in blood (fub) (fu in plasma adjusted for blood:plasma partitioning), and renal clearance were used to derive the steady-state concentration (Css) of each compound that will be used for in vitro–in vivo extrapolation (IVIVE). Renal clearance was calculated using the glomerular filtration rate (a species-dependent constant) and the fub. The Css calculation is detailed in Supplementary Text S11.
(§15) The gradient is available in Table S11. […]
(§16) Chemical stability in plasma was assessed
(§17) (F) Percent Stability = T300minutesT60minutes∗100

[4] = as above; format: in vitro ADME; conditions: both sexes, Sprague Dawley, rat, rat plasma, 10000 nM
Method: as §12, §13, §14, §15, §16, §17

[5] = Ultracentrifugation plasma protein binding assay, human plasma; format: in vitro ADME; conditions: both sexes, human
Method: as §12, §13, §14, §15, §16, §17

[6] = system: Human plasma; test: as above; format: in vitro ADME; conditions: for Experimental fup (average fraction unbound in plasma): 10 µM, ultracentrifugation; for Average Stability (T5hr/ T1hr) / Aqueous Fraction concentration / Fraction Unbound in plasma (fup) / Stability (T5hr/ T1hr) / Time 1 hr concentration / Time 5 hr concentration: 10000 nM; for Average Stability (T5hr/ T1hr): 37 °C; for Aqueous Fraction concentration: after ultracentrifugation; for Aqueous Fraction concentration / Fraction Unbound in plasma (fup) / Stability (T5hr/ T1hr) / Time 1 hr concentration / Time 5 hr concentration: replicates A-C
Method: as §12, §13, §14, §15, §16, §17

Q: With `CC(C)NCC(O)COc1cccc2ccccc12` (stereo not shown) [Propranolol, reference compound] as the molecule, how does the half-life at 1 µM ([1]; HT-Background Half Life, heat treated human hepatocytes) read?
A: Its half-life at 1 µM is 12.3 h.

Q: And the half-life at 1 µM ([1]; Half Life, human hepatocytes, time in min)?
A: The half-life at 1 µM was 1.63 h.

Q: What about the half-life at 1000 nM [2] of the same molecule?
A: Its half-life at 1000 nM is 0.261 h.

Q: With `C[C@]12CC[C@H]3[C@@H](CCC4=CC(=O)CC[C@@]43C)[C@@H]1CC[C@@H]2O` [Testosterone] as the molecule, how does the “Average Stability (T5hr/ T1hr)” value [3] read?
A: The value was 1.0825 and 0.9487 and 1.0344.

Q: What about the “Aqueous Fraction, Rep A” value ([3]; Rep A) of the same molecule?
A: The value was 659.2 nM and 463 nM and 481 nM.

Q: And the “Fraction Unbound in plasma (fup), Rep A” value ([3]; Rep A)?
A: The value was 0.05346 and 0.05095.

Q: And the “Stability (T5hr/ T1hr), Rep A” value ([3]; Rep A)?
A: The value was 1.0325 and 0.8708 and 1.0149.

Q: What about the “Time 1 hr concentration, Rep A” value ([3]; Rep A) of the same molecule?
A: The value was 11.552 µM and 9.9536 µM and 9.3008 µM.

Q: And the “Time 5 hr concentration, Rep A” value ([3]; Rep A)?
A: The value was 11.928 µM and 8.6672 µM and 9.4392 µM.

Q: And the “Aqueous Fraction, Rep B” value ([3]; Rep B)?
A: Its value is 678.4 nM and 491 nM and 472 nM.

Q: And the “Fraction Unbound in plasma (fup), Rep B” value ([3]; Rep B)?
A: The value was 0.0545.

Q: What about the “Stability (T5hr/ T1hr), Rep B” value ([3]; Rep B) of the same molecule?
A: Its value is 1.1304 and 0.9004.

Q: And the “Time 1 hr concentration, Rep B” value ([3]; Rep B)?
A: The value was 10.184 µM and 10.0112 µM and 8.783 µM.

Q: What about the “Time 5 hr concentration, Rep B” value ([3]; Rep B) of the same molecule?
A: The value was 11.512 µM and 9.0136 µM.

Q: And the “Aqueous Fraction, Rep C” value ([3]; Rep C)?
A: The value was 681.6 nM and 481.28 nM and 439 nM.

Q: And the “Fraction Unbound in plasma (fup), Rep C” value ([3]; Rep C)?
A: The value was 0.04493 and 0.05209.

Q: What about the “Stability (T5hr/ T1hr), Rep C” value ([3]; Rep C) of the same molecule?
A: The value was 1.0845 and 1.0750 and 1.0540.

Q: And the “Time 1 hr concentration, Rep C” value ([3]; Rep C)?
A: Its value is 12.408 µM and 9.964 µM and 7.99 µM.

Q: And the “Time 5 hr concentration, Rep C” value ([3]; Rep C)?
A: The value was 13.456 µM and 10.7112 µM and 8.4216 µM.

Q: What about the “Average fup (fraction unbound in plasma)” value ([3]; ultracentrifugation) of the same molecule?
A: Its value is 0.0510 and 0.0515.

Q: And the fraction unbound at 4 h, 10 µM ([4]; Rep A, read-out: Fraction Unbound in plasma (fup), Rep A)?
A: The fraction unbound at 4 h, 10 µM was 0.0553.

Q: What about the fraction unbound at 4 h, 10 µM ([4]; Rep B, read-out: Fraction Unbound in plasma (fup), Rep B) of the same molecule?
A: Its fraction unbound at 4 h, 10 µM is 0.0589.

Q: And the fraction unbound at 4 h, 10 µM ([4]; Rep C, read-out: Fraction Unbound in plasma (fup), Rep C)?
A: Its fraction unbound at 4 h, 10 µM is 0.0507.

Q: What about the fraction unbound at 4 h, 10 µM ([4]; ultracentrifugation, read-out: Average fup (fraction unbound in plasma)) of the same molecule?
A: The fraction unbound at 4 h, 10 µM was 0.0549.

Q: And the fraction unbound at 4 h, 10 µM ([5]; plasma, 10 µM, ultracentrifugation, read-out: Experimental fup (average fraction unbound in plasma))?
A: Its fraction unbound at 4 h, 10 µM is 0.048.

Q: What about the fraction unbound at 4 h, 10 µM ([5]; pooled human plasma, 10000 nM, replicates A-C, read-out: Fraction Unbound in plasma (fup)) of the same molecule?
A: The fraction unbound at 4 h, 10 µM was 0.0537.

Q: And the “Experimental fup (average fraction unbound in plasma)” value [6]?
A: Its value is 0.0417.

Q: And the “Experimental fup (average fraction unbound in plasma)” value ([6]; listed as Tesosterone)?
A: The value was 0.0359.

Q: And the “Average Stability (T5hr/ T1hr)” value [6]?
A: The value was 1.1059 and 0.9812.

Q: What about the “Average Stability (T5hr/ T1hr)” value ([6]; listed as Tesosterone) of the same molecule?
A: Its value is 1.0002.

Q: What about the “Aqueous Fraction concentration” value [6] of the same molecule?
A: The value was 546.88 nM and 521.28 nM and 574.4 nM and 376.32 nM and 357.12 nM and 381.76 nM.

Q: And the “Aqueous Fraction concentration” value ([6]; listed as Tesosterone)?
A: The value was 293.12 nM and 277.12 nM and 292.16 nM.

Q: What about the “Fraction Unbound in plasma (fup)” value [6] of the same molecule?
A: Its value is 0.0442 and 0.0462 and 0.0429 and 0.0406 and 0.0415.

Q: What about the “Stability (T5hr/ T1hr)” value [6] of the same molecule?
A: The value was 0.9564 and 1.2770 and 1.0843 and 0.9797 and 0.9599 and 1.0039.

Q: And the “Time 1 hr concentration” value [6]?
A: Its value is 10.6456 µM and 9.2344 µM and 11.4704 µM and 8.9504 µM and 9.1664 µM and 9.1736 µM.

Q: And the “Time 5 hr concentration” value [6]?
A: The value was 10.1816 µM and 11.792 µM and 12.4368 µM and 8.7688 µM and 8.7984 µM and 9.2096 µM.

Q: What about the “Fraction Unbound in plasma (fup)” value ([6]; listed as Tesosterone) of the same molecule?
A: Its value is 0.0369 and 0.0320 and 0.0386.

Q: What about the “Stability (T5hr/ T1hr)” value ([6]; listed as Tesosterone) of the same molecule?
A: Its value is 0.9569 and 1.1423 and 0.9014.

Q: What about the “Time 1 hr concentration” value ([6]; listed as Tesosterone) of the same molecule?
A: The value was 8.3008 µM and 7.576 µM and 8.3888 µM.

Q: What about the “Time 5 hr concentration” value ([6]; listed as Tesosterone) of the same molecule?
A: The value was 7.9432 µM and 8.6544 µM and 7.5616 µM.
